Reference: patent publication US4398023A, “β-1,3-Glucanpolyol, process for preparation thereof, and utilization thereof” (Meito Sangyo Kabushiki Kaisha, priority 1979, dated 1983)
Values belong to the substance of their own block, whether it stands above or below them.

What was measured:
[1] = system: ICR-JCL mice; test: Toxicity (LD50) on ICR-JCL mice; assay type: in vivo; conditions: ICR-JCL mice
Description: The toxicity of the β-1,3-glucanpolyol of this invention is very low, and the LD50 values of the products obtained in Examples 1, 4 and 5, for example, on ICR-JCL mice are as shown in Table 10.

[2] = system: NTF-reticulum cell sarcoma; test: Antitumor activity test using NTF-reticulum cell sarcoma in ICR-JCL mice; assay type: in vivo; conditions: 1 mg/kg/day, intraperitoneal, once a day for 10 days, fifth week
Experimental: (§1) The ascites cells of Sarcoma 180 were inoculated peritoneally in ICR-JCL mice having a body weight of about 23 g. […] Starting 24 hours after the transplantation, the glucanpolyol of this invention was intraperitoneally administered once a day for 10 days. In the fifth week, the tumor was enucleated and its weight was compared with that in non-treated groups. The tumor inhibition ratio was calculated, and the number of tumors which completely regressed was observed.
(§2) The tumor inhibition ratio was calculated in accordance with the following equation. [formula] wherein C is the average weight of tumor in non-treated groups (10 mice per group),
(§3) T is the average weight of tumor in treated groups (10 mice per group).
(9) An antitumor activity test using NTF-reticulum cell sarcoma in ICR-JCL mice
Six million NFT-reticulum cell sarcoma cells were transplanted into the subcutaneous portion of the right inguinal part of ICR-JCL mice having a body weight of about 23 g, and then, the same operation as in (1) above was performed.

[3] = system: Sarcoma 180; test: Antitumor activity test using Sarcoma 180 in ICR-JCL mice; assay type: in vivo; conditions: intraperitoneal, once a day for 10 days, fifth week
Experimental: (1) An antitumor activity test using Sarcoma 180 in ICR-JCL mice
(§4) Starting 24 hours after the transplantation, the glucanpolyol of this invention was intraperitoneally administered once a day for 10 days. In the fifth week, the tumor was enucleated and its weight was compared with that in non-treated groups. The tumor inhibition ratio was calculated, and the number of tumors which completely regressed was observed.
as §2, §3

[4] = system: Sarcoma 180; test: Antitumor activity test using Sarcoma 180 in ddY mice; assay type: in vivo; conditions: 1 mg/kg/day, intraperitoneal, once a day for 10 days, fifth week
Experimental: as §1, §2, §3
(7) An antitumor activity test using Sarcoma 180 in ddY mice
Six million Sarcoma 180 cells were transplanted into the subcutaneous portion of the right inguinal part of ddY mice having a body weight of about 23 g, and then, the same operation as in (1) above was performed.

[5] = system: Sarcoma 180; test: Antitumor activity test using Sarcoma 180 in C57 BL/6 mice; assay type: in vivo; conditions: 1 mg/kg/day, intraperitoneal, once a day for 10 days, fifth week
Experimental: as §1, §2, §3
(6) An antitumor activity test using Sarcoma 180 in C57 BL/6 mice
Six million Sarcoma 180 cells were transplanted into the subcutaneous portion of the right inguinal part of the C57 BL/6 mice having a body weight of about 20 g, and then the same operation as in (1) above was performed.

[6] = system: CCM-adenocarcinoma; test: Antitumor activity test using CCM-adenocarcinoma in ICR-JCL mice; assay type: in vivo; conditions: 1 mg/kg/day, intraperitoneal, once a day for 10 days, fifth week
Experimental: as §1, §2, §3
(8) An antitumor activity test using CCM-adenocarcinoma in ICR-JCL mice
Six million CCM-adenocarcinoma cells were transplanted into the subcutaneous portion of the right inguinal part of ICR-JCL mice having a body weight of about 23 g, and then the same operation as in (1) above was performed.

[7] = Intrinsic viscosity [.eta.]; assay type: physicochemical; conditions: 25° C., aqueous solution; concentration in g/100 ml
Experimental: The intrinsic viscosity, as used in the present invention, is [.eta.] defined by the following equation. [formula] wherein .eta.sp =(.eta.-.eta.o)/.eta.o =/.eta.o -1 in which .eta. is the viscosity (at 25° C. in aqueous solution) of the solution and .eta.o is the viscosity of the solvent; and C is the concentration in g/100 ml.

[8] = system: Meth-A; test: Antitumor activity test using Meth-A in Balb/c mice; assay type: in vivo; conditions: intraperitoneal, once a day for 10 days, fifth week
Experimental: as §4, §2, §3
(3) An antitumor activity test using Meth-A in Balb/c mice

[9] = system: Ehrlich Carcinoma; test: Antitumor activity test using Ehrlich Carcinoma in ICR-JCL mice; assay type: in vivo; conditions: intraperitoneal, once a day for 10 days, fifth week
Experimental: as §4, §2, §3
(2) An antitumor activity test using Ehrlich Carcinoma in ICR-JCL mice

[10] = system: Sarcoma 180; test: Antitumor activity test using Sarcoma 180 in Balb/c mice; assay type: in vivo; conditions: 1 mg/kg/day, intraperitoneal, once a day for 10 days, fifth week
Experimental: as §1, §2, §3
(5) An antitumor activity test using Sarcoma 180 in Balb/c mice
Six million Sarcoma 180 cells were transplanted into the subcutaneous portion of the right inguinal part of the Balb/c mice having a body weight of about 23 g, and then, the same operation as in (1 ) above was performed.

[11] = system: Sarcoma 180; test: Antitumor activity test using Sarcoma 180 in C3H/He mice; assay type: in vivo; conditions: intraperitoneal, once a day for 10 days, fifth week
Experimental: as §4, §2, §3
(4) An antitumor activity test using Sarcoma 180 in C3H/He mice

Substance: β-1,3-glucanpolyol [Example 1]
LD50 Intraperitoneal administration ([1]; intraperitoneal): above 2 g/kg
LD50 Intravenous administration ([1]; intravenous): above 0.5 g/kg
LD50 Oral administration ([1]; oral): above 20 g/kg
Average weight of tumor [2]: 0.51 g
Complete regression [2]: 8/10
Tumor inhibition ratio [2]: 91.1%
Average weight of tumor ([3]; 1 mg/kg/day): 0.28 g
Complete regression ([3]; 1 mg/kg/day): 9/10
Tumor inhibition ratio ([3]; 1 mg/kg/day): 97.5%
Average weight of tumor ([3]; 5 mg/kg/day): 0 g
Complete regression ([3]; 5 mg/kg/day): 10/10
Tumor inhibition ratio ([3]; 5 mg/kg/day): 100%
Average weight of tumor ([3]; 10 mg/kg/day): 0.17 g
Complete regression ([3]; 10 mg/kg/day): 9/10
Tumor inhibition ratio ([3]; 10 mg/kg/day): 98.5%
Average weight of tumor [4]: 0.39 g
Complete regression [4]: 7/10
Tumor inhibition ratio [4]: 96.5%
Average weight of tumor [5]: 0.15 g
Complete regression [5]: 8/10
Tumor inhibition ratio [5]: 95.8%
Average weight of tumor [6]: 0.52 g
Complete regression [6]: 7/10
Tumor inhibition ratio [6]: 95.7%
Intrinsic viscosity [.eta.] [7]: 6.21 dL/g
Average weight of tumor ([8]; 1 mg/kg/day): 7.74 g
Complete regression ([8]; 1 mg/kg/day): 0/10
Tumor inhibition ratio ([8]; 1 mg/kg/day): 42.1%
Average weight of tumor ([8]; 5 mg/kg/day): 5.57 g
Complete regression ([8]; 5 mg/kg/day): 0/10
Tumor inhibition ratio ([8]; 5 mg/kg/day): 58.3%
Average weight of tumor ([8]; 20 mg/kg/day): 9.25 g
Complete regression ([8]; 20 mg/kg/day): 0/10
Tumor inhibition ratio ([8]; 20 mg/kg/day): 30.8%
Average weight of tumor ([9]; 1 mg/kg/day): 0 g
Complete regression ([9]; 1 mg/kg/day): 10/10
Tumor inhibition ratio ([9]; 1 mg/kg/day): 100%
Average weight of tumor ([9]; 5 mg/kg/day): 0 g
Complete regression ([9]; 5 mg/kg/day): 10/10
Tumor inhibition ratio ([9]; 5 mg/kg/day): 100%
Average weight of tumor ([9]; 20 mg/kg/day): 0.31 g
Complete regression ([9]; 20 mg/kg/day): 7/10
Tumor inhibition ratio ([9]; 20 mg/kg/day): 97.9%
Average weight of tumor [10]: 0.08 g
Complete regression [10]: 9/10
Tumor inhibition ratio [10]: 97.8%
Average weight of tumor ([11]; 1 mg/kg/day): 5.14 g
Complete regression ([11]; 1 mg/kg/day): 0/10
Tumor inhibition ratio ([11]; 1 mg/kg/day): 60.2%
Average weight of tumor ([11]; 5 mg/kg/day): 2.14 g
Complete regression ([11]; 5 mg/kg/day): 6/10
Tumor inhibition ratio ([11]; 5 mg/kg/day): 83.4%
Average weight of tumor ([11]; 20 mg/kg/day): 4.62 g
Complete regression ([11]; 20 mg/kg/day): 1/10
Tumor inhibition ratio ([11]; 20 mg/kg/day): 64.2%

Intrinsic viscosity [.eta.] [7]: 8.55 dL/g
Substance: β-1,3-glucanpolyol [Example 7]
